# Reference: patent US9550792B2, “Polycyclic substituted pyrazole kinase activity inhibitors and use thereof” (priority 2013, dated 2017)
# Several values for one entry are separate records, joined by “and”; a condition that tells them apart may be missing. Equal values may be shown once. Read-outs that look alike come from different tables or passages of the source.
# Key:
# [1] = Measurement of lipid-water partition coefficient (Log P); type: physicochemical; details: n-octanol/distilled water, 25° C.
# Protocol: n-octanol and distilled water were allowed to saturate each other for 24 h. An amount of the sample was weighed accurately into a 50 mL volumetric flask and metered with n-octanol that was saturated with water (the sample was dissolved completely). A 10 mL solution of the sample in n-octanol was placed in a 50 mL triangular flask, to which was added 10 mL distilled water which was saturated with n-octanol. The mixture was equilibrated (125 rpm, 72 h) at 25° C. with a constant temperature vibrator. The lipid-water partition coefficient was calculated by the concentrations of the drug in the n-octanol stock solution before the experiment and in the n-octanol layer after experiment.
# [2] = Pharmacokinetics after single oral dose in rats; type: in vivo, Wistar rat; details: for Cmax / Tmax / half-life / AUC(0-t) / MRT last / concentration at 0.5 h / concentration at 1 h / concentration at 2 h / concentration at 2.5 h / concentration at 3 h / concentration at 5 h / concentration at 8 h / concentration at 12 h / concentration at 24 h: male, Wistar, plasma; for Cmax / Tmax / half-life / AUC(0-t) / MRT last / concentration at 0.5 h / concentration at 1 h / concentration at 2 h / concentration at 2.5 h / concentration at 3 h / concentration at 5 h / concentration at 8 h / concentration at 12 h / concentration at 24 h / pharmacokinetic parameters (in words): rat; for AUC(0-t): read-out: AUC 0-24; for MRT last: read-out: MRT 0-24; for concentration at 0.5 h / concentration at 1 h / concentration at 2 h / concentration at 2.5 h / concentration at 3 h / concentration at 5 h / concentration at 8 h / concentration at 12 h / concentration at 24 h: po; for concentration at 0.5 h / concentration at 1 h / concentration at 2 h / concentration at 2.5 h / concentration at 3 h / concentration at 5 h / concentration at 8 h / concentration at 12 h / concentration at 24 h / Plasma concentration, individual rats: 30 mg/kg
# Protocol: 300 μL blood collected from the rat was mixed with 30 μL methanol and 2 mL ethyl acetate. The samples were vortexed for 3 min and centrifuged at 4000 rpm for 15 min. The supernatant was introduced into another centrifugal tube. The lower layer was repeatedly extracted and then the supernatants were combined and dried with nitrogen gas. After redissolution with 150 μL methanol, they were filtered by 0.22 μm membrane and then subjected to analysis with a injection volume of 20 μL.
# An amount of compound was taken accurately to prepare CMC-Na aqueous solution containing 3 mg/mL of drug. 12 healthy male Wister rats were randomly assigned to two groups, each group including 6 rats. The first group was administrated orally compound 1. The second group was administrated orally compound 2. The doses were both 30 mg/kg (corresponding to 2 mL for each rat). The rats were fasting for 12 h before administration and free access to water. 0.6 mL blood samples were collected at 0.5, 1, 1.5, 2, 2.5, 3, 5, 8, 12 and 24 h after drug administration from the venous sinuses and added into EP tubes which were rinsed with heparin sodium previously. The samples were centrifuged at 4,000 r/min for 15 min and the upper plasma were obtained. 300 μL plasma was subjected to analysis and the chromatogram and peak area were recorded. The plasma concentrations of compounds 1 and 2 were calculated to give average concentration-time curve.
# DAS 2.0 program was used to analyze plasma concentration vs. time data after s single oral dose (Table 6, 7). Fitting and the AIC methods were used to determine the model. The analysis was based on the principle that the larger fitting and the smaller AIC, the better model. The oral administration was consistent with the two-compartment model. The statistical distance parameter is used to compare the 2 compounds for the pharmacokinetic parameters.
# lung cancer cell H1299 = test: Anti-tumor activity in vitro, MTT method; type: cell-based; details: Homo sapiens, NCI-H1299, 48 h, read-out: H1299 (IC50/μM)
# [3] = tested on: Candida albicans - ATCC 36082; test: Antifungal activity, modified broth microdilution; type: cell-based; details: Candida albicans, ATCC36082; 48 hours at 35, approximately 50% reduction of growth
# Candida parapsilosis = test: Antifungal activity, modified broth microdilution; type: cell-based; details: Lodderomyces parapsilosis; 48 hours at 35, approximately 50% reduction of growth
# Candida tropicalis = test: Antifungal activity, modified broth microdilution; type: cell-based; details: Candida tropicalis; 48 hours at 35, approximately 50% reduction of growth
# Cryptococcus neoformans = test: Antifungal activity, modified broth microdilution; type: cell-based; details: Cryptococcus neoformans; 48 hours at 35, approximately 50% reduction of growth
# CDK9/cyclin K = CDK9/cyclin K (Homo sapiens, UniProt P50750); test: Kinase IC50, 33P labeled isotope method; type: biochemical; details: 20 μM ATP
# CDK9/cyclin K, sequence (P50750 19-315 limits assumed): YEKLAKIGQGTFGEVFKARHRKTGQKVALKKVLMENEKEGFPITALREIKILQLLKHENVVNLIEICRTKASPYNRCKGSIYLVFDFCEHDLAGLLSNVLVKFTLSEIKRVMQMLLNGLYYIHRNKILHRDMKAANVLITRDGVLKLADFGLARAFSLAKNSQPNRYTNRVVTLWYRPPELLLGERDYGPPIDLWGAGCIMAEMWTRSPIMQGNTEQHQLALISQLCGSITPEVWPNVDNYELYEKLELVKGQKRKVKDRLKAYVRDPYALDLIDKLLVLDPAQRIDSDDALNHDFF
# CDK9/cyclin K, sequence (O75909 whole entry partner): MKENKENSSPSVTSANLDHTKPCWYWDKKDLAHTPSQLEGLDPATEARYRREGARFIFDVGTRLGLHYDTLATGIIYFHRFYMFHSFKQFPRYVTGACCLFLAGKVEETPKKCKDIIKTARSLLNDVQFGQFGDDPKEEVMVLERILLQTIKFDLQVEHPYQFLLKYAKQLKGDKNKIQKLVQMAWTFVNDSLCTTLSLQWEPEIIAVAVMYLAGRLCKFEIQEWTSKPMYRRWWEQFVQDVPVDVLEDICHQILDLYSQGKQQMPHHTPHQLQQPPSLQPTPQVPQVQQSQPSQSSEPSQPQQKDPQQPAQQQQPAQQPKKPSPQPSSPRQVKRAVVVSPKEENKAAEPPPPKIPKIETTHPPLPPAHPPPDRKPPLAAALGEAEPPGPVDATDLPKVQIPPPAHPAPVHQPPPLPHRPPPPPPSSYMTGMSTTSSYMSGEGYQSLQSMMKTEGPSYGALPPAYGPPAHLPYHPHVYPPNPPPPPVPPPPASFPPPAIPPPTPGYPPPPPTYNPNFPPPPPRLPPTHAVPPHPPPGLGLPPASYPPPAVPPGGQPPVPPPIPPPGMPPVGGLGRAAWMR
# Phytophthora infestans = type: in vivo
# [4] = mean of rats, oral 30 mg/kg, time 0.5 h, read-out: Plasma concentration, mean
# [5] = mean of rats, oral 30 mg/kg, time 1 h, read-out: Plasma concentration, mean
# [6] = mean of rats, oral 30 mg/kg, time 2 h, read-out: Plasma concentration, mean
# [7] = mean of rats, oral 30 mg/kg, time 2.5 h, read-out: Plasma concentration, mean
# [8] = mean of rats, oral 30 mg/kg, time 3 h
# [9] = mean of rats, oral 30 mg/kg, time 5 h
# [10] = mean of rats, oral 30 mg/kg, time 8 h, read-out: Plasma concentration, mean
# [11] = mean of rats, oral 30 mg/kg, time 12 h, read-out: Plasma concentration, mean
# [12] = mean of rats, oral 30 mg/kg, time 24 h
# [13] = rat No. 1-6, oral 30 mg/kg, time 2.5 h, read-out: Plasma concentration, individual rats
# [14] = rat No. 1-6, oral 30 mg/kg, time 12 h, read-out: Plasma concentration, individual rats
# [15] = rat No. 1-6, oral 30 mg/kg, time 0.5 h
# [16] = rat No. 1-6, oral 30 mg/kg, time 1 h
# [17] = rat No. 1-6, oral 30 mg/kg, time 2 h
# [18] = rat No. 1-6, oral 30 mg/kg, time 2.5 h
# [19] = rat No. 1-6, oral 30 mg/kg, time 3 h
# [20] = rat No. 1-6, oral 30 mg/kg, time 5 h
# [21] = rat No. 1-6, oral 30 mg/kg, time 8 h
# [22] = rat No. 1-6, oral 30 mg/kg, time 12 h
# [23] = rat No. 1-6, oral 30 mg/kg, time 24 h
structure (smiles),measurement,setting,value
"O=C(Nc1ccc(CN2CCOCC2)cc1)c1n[nH]cc1Nc1ncnc2sccc12 [Compound I-2, 4-(4-thieno[2,3-d]pyrimidinylamino)-N-(4-((4-morpholinyl)methyl)phenyl)-1H-3-pyrazolecarboxamide]",logP at 72 h,[1],1.28
same,melting point,,262 to 265 °C
same,Cmax,[2]; oral 30 mg/kg,265 ± 52.9 ng/mL
same,Tmax,[2]; oral 30 mg/kg,14 ± 5.29 h
same,half-life,[2]; oral 30 mg/kg,14.7 ± 4.23 h
same,AUC(0-t),[2]; oral 30 mg/kg,4350 ± 1300 ng·h/mL
same,MRT last,[2]; oral 30 mg/kg,13.8 ± 1.29 h
same,concentration at 0.5 h,[2]; [4],50.8 ng/mL
same,concentration at 1 h,[2]; [5],85.3 ng/mL
same,concentration at 2 h,[2]; [6],53.2 ng/mL
same,concentration at 2.5 h,[2]; [7],57.6 ng/mL
same,concentration at 3 h,[2]; [8],64.5 ng/mL
same,concentration at 5 h,[2]; [9],122 ng/mL
same,concentration at 8 h,[2]; [10],162 ng/mL
same,concentration at 12 h,[2]; [11],264 ng/mL
same,concentration at 24 h,[2]; [12],157 ng/mL
same,concentration at 2.5 h,[2]; [13],72.9 ng/mL
same,concentration at 12 h,[2]; [14],253 ng/mL
same,"Plasma concentration, individual rats",[2]; [15],29.26 ng*ml/1 and 123.49 ng*ml/1 and 25.98 ng*ml/1 and 24.36 ng*ml/1
same,"Plasma concentration, individual rats",[2]; [16],208.71 ng*ml/1 and 28.68 ng*ml/1 and 18.66 ng*ml/1
same,"Plasma concentration, individual rats",[2]; [17],53.04 ng*ml/1 and 88.44 ng*ml/1 and 37.16 ng*ml/1 and 47.57 ng*ml/1 and 47.03 ng*ml/1 and 46.08 ng*ml/1
same,"Plasma concentration, individual rats",[2]; [18],74.79 ng*ml/1 and 57.6 ng*ml/1 and 39.48 ng*ml/1 and 49.89 ng*ml/1 and 51.04 ng*ml/1
same,"Plasma concentration, individual rats",[2]; [19],81.11 ng*ml/1 and 87.89 ng*ml/1 and 57.21 ng*ml/1 and 41.79 ng*ml/1 and 65.08 ng*ml/1 and 53.93 ng*ml/1
same,"Plasma concentration, individual rats",[2]; [20],124.06 ng*ml/1 and 272.93 ng*ml/1 and 86.12 ng*ml/1 and 78.03 ng*ml/1 and 94.32 ng*ml/1 and 76.64 ng*ml/1
same,"Plasma concentration, individual rats",[2]; [21],196.61 ng*ml/1 and 263.95 ng*ml/1 and 119.66 ng*ml/1 and 82.66 ng*ml/1 and 121.59 ng*ml/1 and 186.27 ng*ml/1
same,"Plasma concentration, individual rats",[2]; [22],345.56 ng*ml/1 and 229.22 ng*ml/1 and 256.32 ng*ml/1 and 213.94 ng*ml/1 and 286.97 ng*ml/1
same,"Plasma concentration, individual rats",[2]; [23],198.92 ng*ml/1 and 97.83 ng*ml/1 and 209.56 ng*ml/1 and 221.75 ng*ml/1 and 74.79 ng*ml/1 and 138.91 ng*ml/1
same,pharmacokinetic parameters (in words),[2]; oral 30 mg/kg,acceptable
"CN1CCN(Cc2ccc(NC(=O)c3n[nH]cc3Nc3ncnc4sccc34)cc2)CC1 [Compound I-1, 4-(4-thieno[2,3-d]pyrimidinylamino)-N-(4-((4-methyl-1-piperazinyl)methyl)phenyl)-1H-3-pyrazole carboxamide]",IC50,lung cancer cell H1299,3.3 µM
same,logP at 72 h,[1],1.27
same,MIC,[3],2.9 µg/mL
same,MIC,Candida parapsilosis,2.08 µg/mL
same,MIC,Candida tropicalis,2.3 µg/mL
same,MIC,Cryptococcus neoformans,3.64 µg/mL
same,IC50,CDK9/cyclin K,39 nM
same,Cmax,[2]; oral 30 mg/kg,241 ± 103 ng/mL
same,Tmax,[2]; oral 30 mg/kg,5.5 ± 2.29 h
same,half-life,[2]; oral 30 mg/kg,45.8 ± 29.1 h
same,AUC(0-t),[2]; oral 30 mg/kg,3350 ± 468 ng·h/mL
same,MRT last,[2]; oral 30 mg/kg,11.6 ± 1.09 h
same,concentration at 0.5 h,[2]; [4],72.7 ng/mL
same,concentration at 1 h,[2]; [5],82.8 ng/mL
same,concentration at 2 h,[2]; [6],103 ng/mL
same,concentration at 2.5 h,[2]; [7],113 ng/mL
same,concentration at 3 h,[2]; [8],154 ng/mL
same,concentration at 5 h,[2]; [9],164 ng/mL
same,concentration at 8 h,[2]; [10],195 ng/mL
same,concentration at 12 h,[2]; [11],134 ng/mL
same,concentration at 24 h,[2]; [12],123 ng/mL
same,concentration at 0.5 h,"[2]; rat No. 1-6, oral 30 mg/kg, time 0.5 h, read-out: Plasma concentration, individual rats",68.8 ng/mL
same,concentration at 1 h,"[2]; rat No. 1-6, oral 30 mg/kg, time 1 h, read-out: Plasma concentration, individual rats",105 ng/mL
same,concentration at 2 h,"[2]; rat No. 1-6, oral 30 mg/kg, time 2 h, read-out: Plasma concentration, individual rats",114 ng/mL
same,concentration at 2.5 h,[2]; [13],100 ng/mL
same,concentration at 8 h,"[2]; rat No. 1-6, oral 30 mg/kg, time 8 h, read-out: Plasma concentration, individual rats",157 ng/mL
same,concentration at 12 h,[2]; [14],108 ng/mL
same,"Plasma concentration, individual rats",[2]; [15],68.95 ng*ml/1 and 65.08 ng*ml/1 and 76.41 ng*ml/1 and 80.51 ng*ml/1 and 76.52 ng*ml/1
same,"Plasma concentration, individual rats",[2]; [16],65.58 ng*ml/1 and 73.81 ng*ml/1 and 81.17 ng*ml/1 and 80.91 ng*ml/1 and 90.92 ng*ml/1
same,"Plasma concentration, individual rats",[2]; [17],97.96 ng*ml/1 and 100.94 ng*ml/1 and 86.23 ng*ml/1 and 86.97 ng*ml/1 and 132.81 ng*ml/1
same,"Plasma concentration, individual rats",[2]; [18],96.8 ng*ml/1 and 113.35 ng*ml/1 and 104.16 ng*ml/1 and 106.91 ng*ml/1 and 158.41 ng*ml/1
same,"Plasma concentration, individual rats",[2]; [19],149.67 ng*ml/1 and 112.43 ng*ml/1 and 125.86 ng*ml/1 and 78.87 ng*ml/1 and 266.46 ng*ml/1 and 191.06 ng*ml/1
same,"Plasma concentration, individual rats",[2]; [20],174.04 ng*ml/1 and 159.33 ng*ml/1 and 115.59 ng*ml/1 and 172.92 ng*ml/1 and 127.6 ng*ml/1 and 232.81 ng*ml/1
same,"Plasma concentration, individual rats",[2]; [21],150.59 ng*ml/1 and 233.26 ng*ml/1 and 151.83 ng*ml/1 and 271.51 ng*ml/1 and 205.77 ng*ml/1
same,"Plasma concentration, individual rats",[2]; [22],135.84 ng*ml/1 and 153.29 ng*ml/1 and 135.94 ng*ml/1 and 110.59 ng*ml/1 and 162.93 ng*ml/1
same,"Plasma concentration, individual rats",[2]; [23],126.6 ng*ml/1 and 105.83 ng*ml/1 and 167.23 ng*ml/1 and 133.16 ng*ml/1 and 79.81 ng*ml/1 and 123.91 ng*ml/1
same,pharmacokinetic parameters (in words),[2]; oral 30 mg/kg,acceptable
same,Severity of tomato leaf blight,Phytophthora infestans; 0.0001 (unit not given),+++ (40-60% blight)
same,Severity of tomato leaf blight,Phytophthora infestans; 0.001 (unit not given),++ (15-40% blight)
same,Severity of tomato leaf blight,Phytophthora infestans; 0.01 (unit not given),+ (0-15% blight)
same,Severity of tomato leaf blight,Phytophthora infestans; 0.1 (unit not given),−
